Test results published in patent publication US11208388B2, “Certain chemical entities, compositions, and methods” (NeuPharma, Inc., priority 2016, dated 2021).

How the values were obtained:
[1] = test system: OCI-LY10 cells; assay: OCI-Ly10 cell proliferation, Alamar Blue (resazurin), 72 hours; assay type: cell-based
Experimental: OCI-Ly10 cells were cultured in Iscove's DMEM supplemented with 20% fetal bovine serum and IX penicillin/streptomycin/glutamine. The cells were maintained in T175 flasks under 5% CO2 in a 37° C. humidified incubator for 5 days prior to plating and assay.
Cells were pooled by centrifugation (200 ref, 8 minutes) and resuspended in fresh medium to a concentration of 2.00E+05 cells/ml. 200 μl of the cell suspension was added to each well (40,000 cells/well) of a black-walled 96 well plate to which 1 μl of compound (n=3 per concentration) in 100% DMSO (0.5% final concentration) was added per well. Vehicle and cell free wells were also included in the assay. The dosed cells were cultured under normal conditions for 72 hours.
Cell proliferation is measured using the dye Alamar Blue (resazurin). Resazurin is reduced to resorufin by cellular enzymes and is fluorescent (544 nm excitation, 612 nm emission). Fluorescence intensity is proportional to cell number. Resazurin was prepared in PBS to a stock concentration of 440 μM. 40 μl of the 440 μM resazurin stock solution was added 3 hours prior to the 72 hour termination of the assay. The plate was returned to normal culture conditions and fluorescence measurements were collected using a Cytation3 multimode plate reader (Biotek) at 72 hours.
The scale utilized in Table 8 is as follows: ++ less than 50 nM and + greater than 50 nM.

[2] = molecular target: BTK (Homo sapiens (Human), UniProt Q06187); assay: Z'-LYTE kinase inhibition assay against BTK; assay type: biochemical; settings: compound at 100 nM; ATP concentration at Km
Chain of BTK (Q06187 whole entry): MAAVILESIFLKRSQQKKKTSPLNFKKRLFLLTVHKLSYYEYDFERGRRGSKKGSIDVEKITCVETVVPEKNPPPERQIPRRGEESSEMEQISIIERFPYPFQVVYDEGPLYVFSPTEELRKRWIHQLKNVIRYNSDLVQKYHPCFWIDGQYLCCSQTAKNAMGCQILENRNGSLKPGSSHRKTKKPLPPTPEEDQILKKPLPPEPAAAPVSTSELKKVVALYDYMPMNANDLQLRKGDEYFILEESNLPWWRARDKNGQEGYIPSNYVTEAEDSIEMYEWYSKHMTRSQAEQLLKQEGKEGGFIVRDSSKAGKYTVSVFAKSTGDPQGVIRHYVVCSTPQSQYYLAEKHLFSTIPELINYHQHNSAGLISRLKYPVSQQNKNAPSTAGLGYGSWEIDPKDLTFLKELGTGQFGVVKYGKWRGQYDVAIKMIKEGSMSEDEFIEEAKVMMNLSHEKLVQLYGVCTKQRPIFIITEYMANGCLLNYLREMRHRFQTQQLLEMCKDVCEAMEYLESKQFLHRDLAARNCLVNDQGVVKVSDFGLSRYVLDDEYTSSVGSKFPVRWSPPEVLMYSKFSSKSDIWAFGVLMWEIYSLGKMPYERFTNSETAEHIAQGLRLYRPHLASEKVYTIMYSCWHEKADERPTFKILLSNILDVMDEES
Experimental: Inhibitory activities of compounds against BTK, EGFR T790M, EGFR L858R, and EGFR L858R/T790M were measured using Z′-LYTE® Method from Life Technologies as briefly described in the following.
Test Compounds are screened in […] DMSO (final) in the well. For 10 point titrations, 3-fold serial dilutions are conducted from the starting concentration. All ATP Solutions are diluted to a 4× working concentration in Kinase Buffer (50 mM HEPES pH 7.5, 0.01% BRIJ-35, 10 mM MgCl2, 1 mM EGTA). Peptide/Kinase Mixtures are diluted to a 2× working concentration in the appropriate Kinase Buffers as described below. • (i) Peptide/Kinase Mixtures for measurement of EGFR (ErbB1) L858R: • The 2×EGFR (ErbB1) L858R/Tyr 04 mixture is prepared in 50 mM HEPES pH 7.5, 0.01% BRIJ-35, 10 mM MgCl2, 4 mM MnCl2, 1 mM EGTA, 2 mM DTT. The final 10 μL Kinase Reaction consists of 0.2-1.68 ng EGFR (ErbB1) L858R and 2 μM Tyr 04 in 50 mM HEPES pH 7.5, 0.01% BRIJ-35, 10 mM MgCl2, 2 mM MnCl2, 1 mM EGTA, 1 mM DTT. After the 1 hour Kinase Reaction incubation, 5 μL of a 1:64 dilution of Development Reagent B is added. • (ii) Peptide/Kinase Mixtures for measurement of EGFR (ErbB1) T790M: The 2×EGFR (ErbB1) T790M/Tyr 04 mixture is prepared in 50 mM HEPES pH 6.5, 0.01% BRIJ-35, 10 mM MgCl2, 1 mM EGTA, 0.02% NaN3. The final 10 μL Kinase Reaction consists of 3.9-30.2 ng EGFR (ErbB1) T790M and 2 μM Tyr 04 in 50 mM HEPES pH 7.0, 0.01% BRIJ-35, 10 mM MgCl2, 1 mM EGTA, 0.01% NaN3. After the 1 hour Kinase Reaction incubation, 5 μL of a 1:64 dilution of Development Reagent B is added. • (iii) Peptide/Kinase Mixtures for measurement of EGFR (ErbB1) L858R/T790M: The 2×EGFR (ErbB1) T790M L858R/Tyr 04 mixture is prepared in 50 mM HEPES pH 6.5, 0.01% BRIJ-35, 10 mM MgCl2, 1 mM EGTA, 0.02% NaN3. The final 10 μL Kinase Reaction consists of 0.38-4.22 ng EGFR (ErbB1) T790M L858R and 2 μM Tyr 04 in 50 mM HEPES pH 7.0, 0.01% BRIJ-35, 10 mM MgCl2, 1 mM EGTA, 0.01% NaN3. After the 1 hour Kinase Reaction incubation, 5 μL of a 1:64 dilution of Development Reagent B is added. • (iv) Peptide/Kinase Mixtures for measurement of BTK: The 2×BTK/Tyr 01 mixture is prepared in 50 mM HEPES pH 7.5, 0.01% BRIJ-35, 10 mM MgCl2, 1 mM EGTA. […]
Reaction starts by 30-second shaking of mixture consisting of 2.5 μL 4× test compound, 5 μL 2× kinase reaction mixture and 2.5 μL 4×ATP Solution on Bar-coded Corning, low volume NBS, black 384-well plate (Corning Cat. #3676). […] Finally fluorescence is read by plate reader. […]
To determine IC50 of a compound against a kinase, a series of concentrations of the compound were tested for the inhibition. IC50 was calculated by plotting the concentration of compound vs the percentage of inhibition in treated wells using GraphPad Prism 5. […]

Compound | IC50 [1] | % Inhibition against BTK [2]
C=CC(=O)Nc1cccc(-c2cc(-c3cccnc3)cc3cnc(N)nc23)c1 [Example C035, N-(3-(2-amino-6-(pyridin-3-yl)quinazolin-8-yl)phenyl)-acrylamide] | > 50 nM | ++ (more than 50% inhibition)
C=CC(=O)Nc1cccc(-c2cc(-c3ccc(C(=O)Nc4ccccc4)nc3)cc3cnc(N)nc23)c1 [Example C059, 5-(8-(3-acrylamidophenyl)-2-aminoquinazolin-6-yl)-N-phenylpicolinamide] | – | + (less than 50% inhibition)
C=CC(=O)N1CCC(c2cc(-c3ccc(C(=O)Nc4cccc(F)c4)nc3)cc3cncnc23)C1 (stereo not drawn) [Example C097, 5-(8-(1-acryloylpyrrolidin-3-yl)quinazolin-6-yl)-N-(3-fluorophenyl)picolinamide] | – | + (less than 50% inhibition)
C=CC(=O)Nc1cccc(-c2cc(-c3ccc(Oc4ncccc4F)cc3F)cc3cncnc23)c1 [Example C105, N-(3-(6-(2-fluoro-4-((3-fluoropyridin-2-yl)oxy)-phenyl)quinazolin-8-yl)-phenyl)acrylamide] | < 50 nM | ++ (more than 50% inhibition)
